From the NIST ThermoML archive (doi:10.1016/j.jct.2014.10.008)

Experiment: osmotic coefficient (dimensionless); mn = molality of the nth substance listed, in mol/kg
Details: 101 kPa, Liquid, Vapor pressure osmometer - Knauer K-7000

CCCC[N+]1(C)CCCC1.N#CN=C=[N-] [1-butyl-1-methylpyrrolidinium dicyanamide] + O
Details | osmotic coefficient
313.15 K, m1 = 0.0272 | 0.915
313.15 K, m1 = 0.0491 | 0.849
313.15 K, m1 = 0.0864 | 0.734
313.15 K, m1 = 0.1088 | 0.697
313.15 K, m1 = 0.1499 | 0.68
313.15 K, m1 = 0.1968 | 0.627
313.15 K, m1 = 0.3968 | 0.503
313.15 K, m1 = 0.5057 | 0.471
313.15 K, m1 = 0.7825 | 0.433
313.15 K, m1 = 0.9665 | 0.416
313.15 K, m1 = 1.474 | 0.373
323.15 K, m1 = 0.0272 | 0.982
323.15 K, m1 = 0.0512 | 0.879
323.15 K, m1 = 0.0928 | 0.855
323.15 K, m1 = 0.112 | 0.846
323.15 K, m1 = 0.1499 | 0.81
323.15 K, m1 = 0.1968 | 0.747
323.15 K, m1 = 0.2912 | 0.673
323.15 K, m1 = 0.3968 | 0.656
323.15 K, m1 = 0.5057 | 0.608
323.15 K, m1 = 0.7825 | 0.538
323.15 K, m1 = 0.9665 | 0.48
323.15 K, m1 = 1.488 | 0.405
328.15 K, m1 = 0.024 | 1.05
328.15 K, m1 = 0.0896 | 0.859
328.15 K, m1 = 0.1248 | 0.815
328.15 K, m1 = 0.2032 | 0.747
328.15 K, m1 = 0.2913 | 0.682
328.15 K, m1 = 0.4017 | 0.642
328.15 K, m1 = 0.5041 | 0.585
328.15 K, m1 = 0.7825 | 0.559
328.15 K, m1 = 0.973 | 0.498
328.15 K, m1 = 1.496 | 0.424

CCCCCCCC[n+]1ccn(C)c1.[Cl-] [1-methyl-3-octylimidazolium chloride] + O
Details | osmotic coefficient
313.15 K, m1 = 0.0346 | 1.05
313.15 K, m1 = 0.0491 | 1
313.15 K, m1 = 0.0809 | 0.816
313.15 K, m1 = 0.1329 | 0.727
313.15 K, m1 = 0.182 | 0.681
313.15 K, m1 = 0.2455 | 0.617
313.15 K, m1 = 0.2917 | 0.555
313.15 K, m1 = 0.3582 | 0.531
313.15 K, m1 = 0.4679 | 0.48
313.15 K, m1 = 0.5228 | 0.45
313.15 K, m1 = 0.6037 | 0.424
313.15 K, m1 = 0.7323 | 0.383
313.15 K, m1 = 0.8825 | 0.343
313.15 K, m1 = 1.072 | 0.317
313.15 K, m1 = 1.356 | 0.289
313.15 K, m1 = 1.771 | 0.266
323.15 K, m1 = 0.0419 | 1.1
323.15 K, m1 = 0.052 | 1.06
323.15 K, m1 = 0.0858 | 0.946
323.15 K, m1 = 0.1118 | 0.918
323.15 K, m1 = 0.182 | 0.726
323.15 K, m1 = 0.2455 | 0.675
323.15 K, m1 = 0.2917 | 0.633
323.15 K, m1 = 0.3582 | 0.587
323.15 K, m1 = 0.4679 | 0.54
323.15 K, m1 = 0.5228 | 0.498
323.15 K, m1 = 0.6037 | 0.464
323.15 K, m1 = 0.7323 | 0.424
323.15 K, m1 = 0.8825 | 0.384
323.15 K, m1 = 1.072 | 0.345
323.15 K, m1 = 1.356 | 0.31
323.15 K, m1 = 1.771 | 0.3
328.15 K, m1 = 0.0361 | 1.14
328.15 K, m1 = 0.0506 | 1.12
328.15 K, m1 = 0.0852 | 1.08
328.15 K, m1 = 0.1329 | 1.07
328.15 K, m1 = 0.1791 | 1.02
328.15 K, m1 = 0.2484 | 0.962
328.15 K, m1 = 0.2947 | 0.957
328.15 K, m1 = 0.3568 | 0.929
328.15 K, m1 = 0.468 | 0.906
328.15 K, m1 = 0.5243 | 0.875
328.15 K, m1 = 0.6052 | 0.844
328.15 K, m1 = 0.7352 | 0.753
328.15 K, m1 = 0.8826 | 0.689
328.15 K, m1 = 1.072 | 0.624
328.15 K, m1 = 1.359 | 0.556
328.15 K, m1 = 1.774 | 0.479
